# How the values were obtained:
# [1] = test system: ovariectomized rats; experiment: Ex vivo BMD (pQCT) of proximal tibia, 2S(−) 8-PN in ovariectomized rats (Example 3); set-up: species or system Sprague-Dawley rats; conditions: OVX rats; for Total BMD, MEAN / Total BMD, MEDIAN / Trabecular BMD, MEAN / Trabecular BMD, MEDIAN: left proximal tibia ex vivo, s.c. 4 weeks
# Description: The aim of the study was to examine bone and uterine effects of a 4-week treatment with 2S(−) 8-Prenylnaringenin (8-PN) in 3-month-old ovariectomized rats. […] At the end of the study, uterine weight and ex vivo bone mineral density (BMD) of tibia were measured.
# A total of 30 female 13-14-week-old Sprague-Dawley rats were used in the study. The animals were randomized into 5 groups, with 6 rats/group. Group 1 was sham-operated (SHAM) and groups 2-5 were ovariectomized (OVX).
# Treatments with the vehicle or test substance started on the day following operation. […] The animals were sacrificed one day after the last dosing. At the end of the study, left tibiae were excised for ex vivo BMD measurement (pQCT) at proximal tibia and uteri were excised for the determination of absolute and relative weights. In addition, samples for the determination of 2S(−)8-Prenylnaringenin concentration were taken from all dosing solutions on the day when they were prepared and on the last day of use. The data of body weights, relative uterine weights and BMD were analyzed with one-way analysis of variance.
# Bone mineral density measurement was carried out by pQCT (XCT-960A, Stratec, Germany). The bone specimens were thawed before measurement. Six 1 mm-thick sections of the proximal tibia (2 mm below the epiphyseal growth plate) were scanned at 0.5 mm intervals using a voxel size of 0.148 mm. Total and trabecular BMD (mg/cm^3) were measured. After bone densitometry, the specimens were wrapped back to saline saturated gauzes and stored at −20° C.
# [2] = test system: ovariectomized rats; experiment: Relative uterus weight, 8-PN racemic, 2S(−) 8-PN and estradiol hemihydrate in ovariectomized rats (Example 4); type: in vivo, Sprague-Dawley rats; conditions: OVX rats
# Description: The aim of the study was to directly compare the effects of Prenylnaringenin (racemate) and 2S(−) 8-Prenylnaringenin to the effects of estradiol hemihydrate on bone mineral density and uterine weight on 3-month-old ovariectomized rats using identical formulations. In addition, the effects of estradiolhemihydrate in two vehicles (oily, aqueous) were examined for influence of formulations. The substances were administered subcutaneously(s.c.) seven days a week beginning the day after ovariectomy. At the end of the study, uterine weight and bone mineral density (BMD) of tibia were measured.
# Forty-one female Sprague-Dawley rats, 12-14 weeks of age were randomized into six groups, 6-8 animals in each. Five groups were ovariectomized (OVX) and one group was sham-operated (SHAM). Treatments started on the day following operation and continued for 28 days. The animals were treated s.c. once a day seven times a week as follows. Group 1 (SHAM vehicle group) and group 2 (OVX vehicle group) were given the vehicle 30% hydroxypropyl-β-cyclodextrin (HP-β-CD). Groups 3 and 4 were administered 4 μg/kg/d of estradiol hemihydrate in vehicle benzyl benzoate/ricinus oil (B/R) and in vehicle HP-β-CD, respectively. Groups 5 and 6 were given 20 mg/kg/d of 2S(−)8-Prenylnaringenin and racemic 8-Prenylnaringenin, respectively, both in vehicle HP-β-CD. At the end of the study, left tibiae were excised for the ex vivo BMD […] were taken from all dosing solutions on the first and last day of use.
# Vehicle 1 (used in the groups 1 and 2): 30% hydroxypropyl-β-cyclodextrin and 0.3% NaCl (w/v), 5% ethanol (v/v) in Aqua sterilisata, pH 7.4.
# Vehicle 2 (used when preparing dosing solutions of the groups 4, 5 and 6): 30% hydroxypropyl-β-cyclodextrin and 0.3% NaCl (w/v) in Aqua sterilisata, pH 7.4.
# Vehicle 3 (used when preparing a dosing solution of the group 3): benzyl benzoate/ricinus oil (B/R) 1+4, v/v.
# [3] = s.c. 28 days, 20 mg/kg/d in HP-β-CD, calculated as percentage of body weight
smiles,measurement,setting,value
"CC(C)=CCc1c(O)cc(O)c2c1O[C@H](c1ccc(O)cc1)CC2=O [2S(−)8-PN, 2S(−) 8-Prenylnaringenin]",effect on OVX-induced decreases in BMD at the highest dose,"[1]; 18 mg/kg/d s.c., 4 weeks",completely inhibited OVX-induced effects
same,effect on OVX-induced decreases in total and trabecular BMD,"[1]; dose range 0.67-18 mg/kg/d s.c., 4 weeks",prevented the OVX-induced decreases in both total and trabecular BMD at the proximal tibial metaphysis dose dependently
same,"Total BMD, MEAN",[1]; 0.67 mg/kg/d,561.1 mg/mL
same,"Total BMD, MEDIAN",[1]; 0.67 mg/kg/d,569.2 mg/mL
same,"Trabecular BMD, MEAN",[1]; 0.67 mg/kg/d,319.1 mg/mL
same,"Trabecular BMD, MEDIAN",[1]; 0.67 mg/kg/d,318.7 mg/mL
same,"Total BMD, MEAN",[1]; 1.77 mg/kg/d,581.5 mg/mL
same,"Total BMD, MEDIAN",[1]; 1.77 mg/kg/d,568.1 mg/mL
same,"Trabecular BMD, MEAN",[1]; 1.77 mg/kg/d,330.9 mg/mL
same,"Trabecular BMD, MEDIAN",[1]; 1.77 mg/kg/d,329.4 mg/mL
same,"Total BMD, MEAN",[1]; 18 mg/kg/d,636.5 mg/mL
same,"Total BMD, MEDIAN",[1]; 18 mg/kg/d,635.4 mg/mL
same,"Trabecular BMD, MEAN",[1]; 18 mg/kg/d,411.8 mg/mL
same,"Trabecular BMD, MEDIAN",[1]; 18 mg/kg/d,396.6 mg/mL
same,effect on the uterus and body weight compared with estradiol in the same vehicle (HP-β-CD),"[2]; 20 mg/kg/d vs estradiol 4 μg/kg/d, same bone effective dose",much lower effect on the uterus and body weight than estradiol at the same bone effective dose
same,"Relative uterus weight, Mean",[2]; [3],0.067
same,"Relative uterus weight, Median",[2]; [3],0.067

# From US20070276032A1, “Use of 8-Prenylnaringenin for Hormone Replacement Therapy” (priority 2003, published 2007)
